Reference: paper PMC8947478, “Novel, First-in-Human, Oral PCLX-001 Treatment in a Patient with Relapsed Diffuse Large B-Cell Lymphoma” (Current Oncology, 2022)
Entries after “also recorded” stand apart in the source; their conditions may differ. Read-outs that look alike come from different tables or passages of the source.

Key:
[1] = Pharmacokinetic analysis of plasma after oral PCLX-001 (UHPLC-MS, two-compartment model); assay type: in vivo, human; conditions: patient
Description: The primary pharmacokinetic analysis endpoints were:
Tmax is the time at which the maximum plasma concentration of PCLX-001 is achieved.
Cmax is the maximum plasma concentration of PCLX-001.
The patient was dosed with oral doses of PCLX-001 20 mg. After dosing, the blood samples (3 mL volume) were serially collected into heparinized tubes from a right forearm butterfly cannula. All blood fluid specimens were frozen and later assayed using a validated UHPLC-MS detection method.
PK Solver 2.0 freeware (https://www.boomer.org/boomer/software/pksolver.zip; accessed 26 November 2021) was used to determine the single dose pharmacokinetic parameters using a two-compartment model. The terminal phase rate constant (λz) was estimated by applying exponential linear regression to the concentrations in the terminal phase, and the apparent terminal half-life (t 1/2) was estimated as 0.693/λz. The area under the concentration (AUC) vs. time curve from the time of injection to the last (Clast) measured concentration (AUC0-tlast) was calculated. […] Oral body clearance (CLoral) was calculated as the ratio of the dose to the AUC0–∞. The area under the first moment concentration vs. time curve (AUMC) was estimated as the sum of the area under the C × t vs. t curve from time zero to Clast, plus the ratios of Clast × t/λz and Clast/λz 2. The mean residence time (MRT) was calculated as the ratio of AUMC to AUC0–∞). The apparent volume of distribution of steady-state (Vdss) was calculated as the product of CL × MRT.

[2] = system: kinase; design: method as in PMID 33093447; conditions: KINOMEscan; cited from earlier work
[3] = system: relapsed diffuse large B-cell lymphoma; assay: Efficacy assessment by imaging (Lugano classification criteria); assay type: in vivo, human; conditions: patient, 20 mg oral daily, CT on day 29
From the text: The subject had baseline cross-sectional and PET imaging. Protocol-defined imaging was CT every 2 cycles and PET every 6 cycles or as clinically indicated. Evaluation of response was by the Lugano classification criteria for the evaluation of non-Hodgkin lymphoma.

[4] = cited from earlier work
[5] = system: hematologic and lymphoma cell lines; design: method as in PMID 33093447; conditions: tissue culture; cited from earlier work
[6] = Toxicity assessment in phase I trial (CTCAE version 5.0, DLT); assay type: in vivo, human; conditions: patient, 20 mg oral daily
Description: The subject was assessed for toxicity using daily diary entries, clinical assessments at baseline, day 8, day 15, day 22, and day 28. Dose-limiting toxicities (DLTs) were defined as the following cycle 1 CTCAE version 5.0 adverse events: Gr 4 platelets, Gr ≥ 3 platelets with bleeding and/or transfusions, Gr 4 ANC for ≥ 7 days, Gr ≥ 3 febrile neutropenia, and Gr ≥ 3 non-hematological toxicity.

[7] = system: Lyn; assay: Flow cytometry of intracellular Lyn level in PBMC populations; assay type: in vivo, human
Description: Peripheral blood was collected from the patient at each sampling point (Screen, Day 1, and Day 28 of treatment) by venipuncture according to normal phlebotomy practice in 2 × 8 mL BD Vacutainer® CPT™ Tubes. Samples were immediately mixed by gentle inversion 10 times and process for PBMC isolation within 1 h. After centrifugation (1800× g for 20 min) at room temperature (18–25 °C) in a swinging bucket rotor (swing-out head), the mononuclear cells and platelets (referred to as PBMC) were carefully collected as the whitish layer just above the polyester gel and under the plasma layer, transferred into 9 mL freezing media (8 mL Fetal Bovine Serum and 1 mL DMSO), and stored at −70 °C or below until flow cytometry analysis.
PBMC were recovered by centrifugation (400× g for 5 min), washed in RPMI culture media, resuspended in PBS, and prepared for FACS analysis. PBMC were first labeled with Zombie Aqua™ Fixable Viability kit (1/100, 20 min at 4 °C; BioLegend, San Diego, CA, USA) for exclusion of dead cells, blocked with Human TruStain FcX Fc receptor blocking solution (5/100, 10 min at room temperature, BioLegend), then stained for extracellular markers using antibodies ECD-CD3 (clone UCHT1) and PE-Cy7-CD4 (clone SFCI12T4D11) from Beckman Coulter (Missaugua, ON, Canada) PerCp-Cy5.5-CD8 (SK-1) and BV-785CD19 (clone HIB19) from BioLegend, and PE-CF594-CD14 (clone MΦPG) from BD Bioscience (Mississauga, ON, Canada) for 20 min at 4 °C. The cells were then fixed and permeabilized using the eBioscience Intracellular Fixation and Permeabilization buffer set (Invitrogen, Mississauga, ON, Canada) and stained for intracellular markers AF-488-HGAL (clone 1H1-A7, eBioscience), AF-488-Lyn (Lyn-01, ab1890, Abcam, Cambridge, UK), and homemade monoclonal antibodies AF-700-NMT1(clone 6F8D5) and APC-NMT2 (clone 6C5E8), as previously described, in parallel with relevant isotype controls for at least 30 min at 4 °C. Prior to applying in the test, intracellular antibodies were first labeled with different fluorochromes using Lightning-Link conjugation kits (Abcam) and titrated to achieve the best concentration. Finally, samples were acquired on a Fortessa X-20 flow cytometer (BD Bioscences, Faculty of Medicine and Dentistry Flow Cytometry Facility, University of Alberta). Data were analyzed using FlowJo software (TreeStar, Ashland, OR, USA, version 10.8).

[8] = 20 mg oral, Day 1 single dose, plasma

Compound: Cc1c(NS(=O)(=O)c2c(Cl)cc(-c3ccnc(N4CCNCC4)c3)cc2Cl)c(CC(C)C)nn1C [PCLX-001, 2,6-dichloro-N-(3-isobutyl-1,5-dimethyl-1H-pyrazol-4-yl)-4-(2-(piperazin-1-yl)pyridin-4-yl)benzenesulfonamide]
- AUC(0-inf) ([1]; human, plasma, po, 20 mg, 20 mg oral daily, Day 15, plasma, read-out: Day 15 AUC0–∞): 2640 ng·h/mL
- Cmax ([1]; human, plasma, po, 20 mg, 20 mg oral, Day 1 single dose, plasma, read-out: Cmax): 278 ng/mL
- AUC(0-inf) ([1]; human, plasma, po, 20 mg, 20 mg oral, first dose (Day 1), plasma, read-out: AUC0–∞): 2360 ng·h/mL
- half-life ([1]; human, plasma, po, 20 mg, 20 mg oral, single dose, read-out: T ½ (apparent terminal half-life) (converted)): 16 h
- MRT ([1]; human, plasma, 20 mg oral, single dose): 18.6 h
- Tmax ([1]; human, 20 mg oral, Day 1 single dose, plasma): 1.1 h
- Day 22 pre-dose plasma concentration ([1]; 20 mg oral daily, Day 22 pre-dose (trough)): 51.4 ng/mL
- drug accumulation in plasma after repeated daily dosing ([1]; 20 mg oral daily, first dose AUC vs day 15 AUC): without systemic accumulation of drug by day 15; also recorded: no evidence of drug accumulation
- AUC0-tlast [1, 8]: 1701.33 ng·h/mL
- Cmax [1, 8]: 278.23 ng/mL
- AUMC ([1]; 20 mg oral, single dose): 43,883.76 ng/mL.h^2
- CLoral ([1]; 20 mg oral, single dose): 8.4 L/h
- T ½ (apparent terminal half-life) ([1]; 20 mg oral, single dose): 16.42 h
- Vdss ([1]; 20 mg oral, single dose): 156.49 L
- off-target kinase inhibition [2]: no significant off-target kinase inhibition
- response of lymphoma (Lugano classification criteria) [3]: disease progression; also recorded: progression of the volume of lymphoma
- cardiac conduction ([4]; animal non-clinical safety testing): no cardiac conduction issues
- dose-limiting toxicity in GLP non-clinical safety testing [4]: diarrhea was dose-limiting
- inhibition of hematologic and lymphoma cell lines [5]: markedly inhibits
- dose-limiting toxicities ([6]; 28-day cycle): did not experience any dose-limiting toxicities; also recorded: no protocol-defined dose-limiting toxicities
- hematopoietic profile and biochemistry ([6]; throughout the trial): remained normal; also recorded: no evidence of toxicity to hematopoietic function, liver function, or kidney function
- change of Lyn protein level in circulating blood mononuclear cells ([7]; 20 mg daily, 28 days, all populations): no clear change; also recorded: no apparent trend; also recorded: no significant decrease
- Lyn intracellular level, % of population ± CV, Day 28 ([7]; CD4+ T cells, untreated: Screening 13.7, Day 1 20): 28.7 ± 0.37%
- Lyn intracellular level, % of population ± CV, Day 28 ([7]; CD8+ T cells, untreated: Screening 17.6, Day 1 25.8): 33.3 ± 0.31%
- Lyn intracellular level, % of population ± CV, Day 28 ([7]; CD14+ Monocytes, untreated: Screening 51.4, Day 1 40.5): 66.6 ± 0.59%
- Lyn intracellular level, % of population ± CV, Day 28 ([7]; CD19+ B cells, untreated: Screening 8.33, Day 1 12.4): 12.1 ± 0.15%
